According to US20240132484A1, “BROAD SPECTRUM ANTIVIRAL COMPOUNDS TARGETING THE SKI COMPLEX” (priority 2020, published 2024):
“And” between values parts separate entries of the source, which are not always exact repeats. Identical values can stand only once. Like-named read-outs stand apart in the source and are kept apart here.

Columns and labels:
SARS2 = type: cell-based, SARS-CoV-2; conditions: for Percentage Infection Relative to Appropriate DMSO Control with Avg Background Subtraction: Greiner Celigo plates; for Infection Data, Average, Mean: average of Exp 1-3 (SMW475, SMW477, SMW478)
cells (nuclei count) = conditions: for Toxicity Data, Average, Mean: average of Exp 1-3 (SMW475, SMW477, SMW478)

Q: What does the source list for `CCN(CC)CCN(Cc1ccccc1)Cc1ccccn1` [SILCS33]?
A: Percentage Infection Relative to Appropriate DMSO Control with Avg Background Subtraction (SARS2; Exp 1 (SMW475), 1 uM): 53.62% and 101.44% and 86.72%; Percentage Infection Relative to Appropriate DMSO Control with Avg Background Subtraction (SARS2; Exp 1 (SMW475), 5 uM): 69.33% and 82.60% and 84.98%; Percentage Infection Relative to Appropriate DMSO Control with Avg Background Subtraction (SARS2; Exp 1 (SMW475), 10 uM): 79.81% and 90.19% and 84.97%; Percentage Infection Relative to Appropriate DMSO Control with Avg Background Subtraction (SARS2; Exp 1 (SMW475), 50 uM): 52.39% and 69.09% and 65.56%; Percentage Infection Relative to Appropriate DMSO Control with Avg Background Subtraction (SARS2; Exp 2 (SMW477), 1 uM): 120.88% and 113.91% and 111.55%; Percentage Infection Relative to Appropriate DMSO Control with Avg Background Subtraction (SARS2; Exp 2 (SMW477), 5 uM): 128.80% and 118.55% and 121.74%; Percentage Infection Relative to Appropriate DMSO Control with Avg Background Subtraction (SARS2; Exp 2 (SMW477), 10 uM): 114.36% and 136.38% and 130.63%; Percentage Infection Relative to Appropriate DMSO Control with Avg Background Subtraction (SARS2; Exp 2 (SMW477), 25 uM): 73.62% and 97.76% and 95.99%; Percentage Infection Relative to Appropriate DMSO Control with Avg Background Subtraction (SARS2; Exp 2 (SMW477), 50 uM): 31.41% and 36.50% and 41.52%; Percentage Infection Relative to Appropriate DMSO Control with Avg Background Subtraction (SARS2; Exp 3 (SMW478), 5 uM): 121.27% and 137.96% and 122.71%; Percentage Infection Relative to Appropriate DMSO Control with Avg Background Subtraction (SARS2; Exp 3 (SMW478), 10 uM): 159.81% and 126.46% and 162.16%; Percentage Infection Relative to Appropriate DMSO Control with Avg Background Subtraction (SARS2; Exp 3 (SMW478), 25 uM): 126.24% and 109.99% and 117.46%; Percentage Infection Relative to Appropriate DMSO Control with Avg Background Subtraction (SARS2; Exp 3 (SMW478), 50 uM): 71.82% and 89.49% and 84.99%; Percentage Inhibition Average 1 μM (SARS2; SARS2, 1 μM): 28.78%; Screening data (Relative infection to DMSO controls) Average 1 μM (SARS2; SARS2, 1 μM, 100=DMSO control): 71.22; Percentage Inhibition Average 5 μM (SARS2; SARS2, 5 μM): −9.77%; Screening data (Relative infection to DMSO controls) Average 5 μM (SARS2; SARS2, 5 μM, 100=DMSO control): 109.77; Percentage Inhibition Average 10 μM (SARS2; SARS2, 10 μM): −20.53%; Screening data (Relative infection to DMSO controls) Average 10 μM (SARS2; SARS2, 10 μM, 100=DMSO control): 120.53; Percentage Inhibition Average 25 μM (SARS2; SARS2, 25 μM): 24.68%; Screening data (Relative infection to DMSO controls) Average 25 μM (SARS2; SARS2, 25 μM, 100=DMSO control): 75.32; Percentage Inhibition Average 50 μM (SARS2; SARS2, 50 μM): 39.69%; Screening data (Relative infection to DMSO controls) Average 50 μM (SARS2; SARS2, 50 μM, 100=DMSO control): 60.31; Average (relative infection to DMSO over the 5 tested concentrations) (SARS2; SARS2, average over 1 to 50 uM, 100=DMSO control): 87.43; Infection Data, Average, Mean (SARS2; n 9, 1 uM): 71.22%; Infection Data, Average, Mean (SARS2; n 9, 5 uM): 109.77%; Infection Data, Average, Mean (SARS2; n 9, 10 uM): 120.53%; Infection Data, Average, Mean (SARS2; n 9, 25 uM): 75.32%; Infection Data, Average, Mean (SARS2; n 9, 50 uM): 60.31%; Relative cell count to DMSO controls, Average 1 μM (cells (nuclei count); 1 μM, toxicity data, 100=DMSO control): 118.72; Relative cell count to DMSO controls, Average 5 μM (cells (nuclei count); 5 μM, toxicity data, 100=DMSO control): 94.18; Relative cell count to DMSO controls, Average 10 μM (cells (nuclei count); 10 μM, toxicity data, 100=DMSO control): 80.17; Relative cell count to DMSO controls, Average 25 μM (cells (nuclei count); 25 μM, toxicity data, 100=DMSO control): 85.8; Relative cell count to DMSO controls, Average 50 μM (cells (nuclei count); 50 μM, toxicity data, 100=DMSO control): 59.2; Toxicity Data, Average, Mean (cells (nuclei count); n 9, 1 uM): 118.72%; Toxicity Data, Average, Mean (cells (nuclei count); n 9, 5 uM): 94.18%; Toxicity Data, Average, Mean (cells (nuclei count); n 9, 10 uM): 80.17%; Toxicity Data, Average, Mean (cells (nuclei count); n 9, 25 uM): 85.80%; Toxicity Data, Average, Mean (cells (nuclei count); n 9, 50 uM): 59.20%; Relative cell count to DMSO controls, Average (for correlation analysis) (cells (nuclei count); average value over the 5 tested concentrations (1 to 50 uM)): 87.61
